Laboratory results reported in ChEMBL document CHEMBL5727746, “Benzothiazol compounds and methods using the same for treating neurodegenerative disorders” (2020).

Target: Mast/stem cell growth factor receptor Kit (Homo sapiens, UniProt P10721)
Assay: Magnesium chloride (MgCl2), Manganese(II) chloride (MnCl2), Bovine serum albumin (BSA) and dimethylsulfoxide (DMSO) were purchased from Sigma-Aldrich.

Chain of Mast/stem cell growth factor receptor Kit (P10721 whole entry): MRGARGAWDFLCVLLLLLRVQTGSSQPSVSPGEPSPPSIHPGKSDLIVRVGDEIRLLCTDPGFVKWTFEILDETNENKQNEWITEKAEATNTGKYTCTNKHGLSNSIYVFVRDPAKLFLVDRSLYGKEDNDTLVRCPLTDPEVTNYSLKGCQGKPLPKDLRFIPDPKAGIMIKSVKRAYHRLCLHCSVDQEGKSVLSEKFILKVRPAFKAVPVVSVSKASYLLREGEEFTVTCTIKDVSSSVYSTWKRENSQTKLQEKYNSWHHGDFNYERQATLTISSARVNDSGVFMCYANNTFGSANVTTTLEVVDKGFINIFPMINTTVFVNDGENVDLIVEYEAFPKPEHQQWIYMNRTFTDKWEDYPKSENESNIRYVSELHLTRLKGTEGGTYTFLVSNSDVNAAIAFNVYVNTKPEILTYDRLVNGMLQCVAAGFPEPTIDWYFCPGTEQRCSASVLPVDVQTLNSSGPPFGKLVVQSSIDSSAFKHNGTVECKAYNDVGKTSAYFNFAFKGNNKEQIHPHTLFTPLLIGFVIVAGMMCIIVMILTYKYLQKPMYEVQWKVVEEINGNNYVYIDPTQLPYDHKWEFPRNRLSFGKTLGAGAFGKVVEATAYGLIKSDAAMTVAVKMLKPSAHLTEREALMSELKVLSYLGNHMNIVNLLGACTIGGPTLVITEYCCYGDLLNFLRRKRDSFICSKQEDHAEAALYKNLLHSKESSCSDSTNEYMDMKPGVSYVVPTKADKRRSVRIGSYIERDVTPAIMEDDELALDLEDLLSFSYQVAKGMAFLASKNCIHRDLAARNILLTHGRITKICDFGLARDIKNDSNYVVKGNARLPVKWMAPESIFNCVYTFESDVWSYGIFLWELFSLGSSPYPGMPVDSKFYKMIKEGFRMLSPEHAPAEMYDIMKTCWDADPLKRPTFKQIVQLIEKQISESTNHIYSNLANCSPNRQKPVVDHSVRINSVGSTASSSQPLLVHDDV

- IC50: > 10 µM
Structure (SMILES): Cc1ccc2c(c1-c1ccc3nc(NC(=O)[C@@H]4C[C@@H]4F)sc3c1)CCN2
